From paper PMC6085462 (Frontiers in Microbiology, 2018)
“Also recorded” adds a separate entry of the source. Where no end group is shown, it is not given here.

Legend:
[1] = tested on: elastase type IIA from porcine pancreas (EC 3.4.21.36); assay: elastase alone at a final concentration of 8 mg/mL in the intestinal electrolyte solution; settings: 37°C, up to 120 min
[2] = tested on: elastase type IIA from porcine pancreas; assay: elastase alone in the intestinal electrolyte solution; settings: 37°C, up to 120 min
pancreatin; trypsin [3] = assay: Duodenal solution: 8% pancreatin, 4% porcine bile solutions and 2 mg/mL trypsin solution in intestinal electrolyte solution adjusted to pH 6.3; settings: 37°C, up to 120 min
pepsin; lipase = assay: TIM-1 gastric compartment: simulated gastric secretions containing pepsin (0.19 mg/mL) or lipase (0.25 mg/mL) in an electrolyte solution, pH 4.5 decreased gradually to 1.7; settings: up to 60 min
[4] = tested on: α-chymotrypsin from bovine pancreas (EC 3.4.21.1); assay: α-chymotrypsin alone at a final concentration of 8 mg/mL in the intestinal electrolyte solution; settings: 37°C, up to 120 min
pancreatin; trypsin [5] = assay: static duodenal model: 8% pancreatin, 4% porcine bile, 2 mg/mL trypsin in intestinal electrolyte solution, pH 6.3; settings: bovine trypsin, 37°C, up to 120 min
[6] = tested on: Pancreatin from porcine pancreas; assay: pancreatin alone at a final concentration of 8 mg/mL in the intestinal electrolyte solution; settings: 37°C, up to 120 min
pancreatin = pancreatin alone in the intestinal electrolyte solution; settings: porcine, 37°C, up to 120 min
[7] = ref Kheadr et al., 2010; cited from earlier work
From the text: A bacteriocin is most often defined as a peptide of molecular mass mostly <10,000 Da that is inhibitory to species closely related to the producer species. Bacteriocins differ from antibiotics in being synthesized by translation of an mRNA transcript, having generally a narrow spectrum of activity and being effective at concentrations as low as nanomolar ([Nes, 2011]). Some bacteriocins may undergo post-translational modifications and as such belong to the family of ribosomally-synthesized and post-translationally-modified peptides (RiPPs) ([Arnison et al., 2013]) Their potential as antimicrob ...

Row | Substance | cleaved bond [1] | cleaved bond [2] | cleaved bond (pancreatin; trypsin [3]) | cleaved bond (pepsin; lipase) | cleaved bond [4] | cleaved bond (pancreatin; trypsin [5]) | cleaved bond [6] | cleaved bond (pancreatin) | Antibacterial activity in the small intestine under gastrointestinal conditions [7]
1 | GGAGHVPEYFVGIGTPISFYG | F10-V11, 0 min; also recorded: I13-G14, major, 0 min; also recorded: Y9-F10, 0 min; also recorded: V11-G12, 0 min | F10-V11, 0 min; also recorded: I13-G14, 0 min; also recorded: Y9-F10, 0 min | Y9-F10, first_seen, 0 min; also recorded: F10-V11, first_seen, 0 min; also recorded: I13-G14, first_seen, 0 min; also recorded: G12-I13, 60 min; also recorded: V11-G12, 60 min | G14-T15, 60 min | Y9-F10, major, 0 min; also recorded: F10-V11, 0 min | I13-G14, 60 min; also recorded: F10-V11, 60 min; also recorded: Y9-F10, 60 min; also recorded: Y9-F10, 120 min; also recorded: V11-G12, 120 min | V11-G12, 0 min; also recorded: Y9-F10, major, 0 min; also recorded: F10-V11, 0 min; also recorded: I13-G14, 0 min | F10-V11, 0 min; also recorded: Y9-F10, 0 min; also recorded: I13-G14, 0 min | –
2 | pediocin PA-1 (KYYGNGVTCGKHSCSVDWGKATTCIINNGAMAWATGGHQGNHKC; ends and bridges not checked; cysteine pairing not given here; UniProt P29430 19-62, looked up) [class IIa bacteriocin] | – | – | – | – | – | – | – | – | losing completely its antibacterial activity
